From publication PMC4585835 (Scientific Reports, 2015)
Like-named read-outs stand apart in the source and are kept apart here. Where a SMILES comes first, the peptide text is derived from it. [ ]: non-standard residue; d: D form. The star is where a group is joined. Stearoyl = CCCCCCCCCCCCCCCCCC(=O)*

Tests used:
[1] = target: T1, rat thrombin (Rattus norvegicus, UniProt P18292); experiment: Inhibition of rat thrombin-catalyzed hydrolysis of Chromozym TH; assay type: biochemical; settings: 25 °C, pH 7.4
T1 construct: purchased Sigma

[2] = Bleeding time test (BT) in rats; assay type: in vivo, rat; settings: for increase on the bleeding time compared with the saline group: 30 min; for bleeding time (BT): 30 min after administration
Method: Bleeding time was determined as reported previously. Male SD rats (180–220 g) were divided into 6 groups (n = 8). […] Thirty minutes after the injection, bleeding was induced by tail transection of the anesthetized rat with a size 21 disposable scalpel blade 2 mm from the tail tip. The bleeding tail was wiped with filter paper every 30 s, and the bleeding time was recorded when no blood was observed on the filter paper.

[3] = target: T2, human serum albumin (HSA) (Homo sapiens, UniProt P02768); experiment: Intrinsic HSA fluorescence quenching; assay type: binding; settings: HSA 5 μM, pH 7.4, 25 °C
T2 construct: purchased Calbiochem (Merck, Germany)
T2 sequence (P02768 25-609): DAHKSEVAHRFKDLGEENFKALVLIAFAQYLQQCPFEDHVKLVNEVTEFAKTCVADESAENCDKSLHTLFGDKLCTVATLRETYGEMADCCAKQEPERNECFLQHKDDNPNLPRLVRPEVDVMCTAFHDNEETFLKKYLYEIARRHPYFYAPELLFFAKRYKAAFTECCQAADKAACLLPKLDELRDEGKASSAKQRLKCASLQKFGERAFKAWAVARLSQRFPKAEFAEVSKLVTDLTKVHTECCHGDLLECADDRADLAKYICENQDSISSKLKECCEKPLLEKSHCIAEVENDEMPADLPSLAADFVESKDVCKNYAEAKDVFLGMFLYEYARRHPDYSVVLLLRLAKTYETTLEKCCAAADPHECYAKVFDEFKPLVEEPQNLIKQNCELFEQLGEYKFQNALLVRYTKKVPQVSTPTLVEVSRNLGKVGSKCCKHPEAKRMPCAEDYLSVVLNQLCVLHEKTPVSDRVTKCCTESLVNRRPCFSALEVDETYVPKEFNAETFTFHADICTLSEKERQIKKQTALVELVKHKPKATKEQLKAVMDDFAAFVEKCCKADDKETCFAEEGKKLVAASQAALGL
Method: Fluorescence measurements were conducted on a Hitachi F-4500 spectrofluorometer with a slit width of 5 nm (excitation) and 5 nm (emission). All measurements were performed at 25 °C in a 1 cm path length quartz cell. Samples were excited at 280 nm and the fluorescence intensity was measured between 300–400 nm. Human serum albumin (5 μM) was dissolved in 10 mM HEPES/100 mM NaCl solution (pH 7.4), and then titrated with the stock solution of peptides prepared in the same buffer. The background fluorescence spectra were recorded and subtracted from the ones collected from the peptide-containing samples.

[4] = Pharmacokinetics in rats, i.v.; assay type: in vivo; settings: rat
Method: SD Rats were randomly divided into three groups (n = 5). […] All blood samples were immediately centrifuged at 5000 rpm for 5 min at room temperature, and the plasma obtained was stored at −20 °C before analysis. To the rat plasma (100 μL) was added 10 μL internal standard (80 ~ 100 ng/ml Carbamazepine), followed by mixing with 200 μL methanol with vortexing for 1 min. At this stage, certain amounts of proteins may precipitate out, thus this mixture was centrifuged at 12,000 rpm for 5 min at room temperature to achieve complete separation. The 20 μl supernatant was injected into a HPLC (Symbiosis, Spark, Holland; column: 50 mm × 2.1 mm, 5 μm, Agilent Eclipse Plus) –MS/MS system (ABI 4000 Q-Trap triple quadrupole mass spectrometer) equipped with electrospray ionization (ESI) source in the positive ion mode (Foster City, USA). The HPLC elution gradient was as follows: 0–0.5 min, 5–5% (B); 0.5–3 min, 5–95% (B); 3–4 min, 95–95% (B); 4–4.06 min, 95–5% (B); 4.06–6 min, 5–5% (B); the flow-rate was 0.4 ml/min; A was 0.1% formic acid/Waterl, B was 0.1% formic acid/methanol. The MS parameters were: CUR10Psi; Ion Spray Voltage (IS) 5500v; Collision activated dissociation (CAD) High, Gas1 = 50 psi, Gas2 = 50 psi, TEM = 500 °C.
All three peptides remained stable in plasma during three freeze/thaw cycles, at room temperature for at least 2 h. The supernatant of plasma samples were also found to be stable for at least 24 h at 10 °C in the autosampler.
The statistical significance of the difference among pharmacokinetic parameters was determined using the mean comparison Student’s t-test, and the resulting P values were lower than 0.05, which is considered to be statistically significant.

[5] = tested on: rat plasma; experiment: Time course of APTT in rat plasma after peptide administration; assay type: in vivo
Method: Peptides were administrated to male SD rats (280–320 g) via tail veins. At different time points (0, 20, 40, 60, 90, 120, 180, and 240 min; or 0, 1, 2, 3, 4, 5, 8, and 12 h) after peptide injection, blood samples were collected via retroorbital vein plexus, and then mixed with 3.2% sodium citrate solution in a ratio of 9:1 (v/v). The resulting mixtures were centrifuged at 2,000 g for 15 min at 4 °C. The APTT of rat plasma was determined on a coagulation analyzer (Coatron M1, TECO, Germany) following the manual protocol. Briefly, a cuvette with 0.05 mL rat plasma was first warmed to 37 °C for 2 min, and then 0.05 mL of the warmed APTT reagent was added, followed by incubating at 37 °C for 3 min. Afterwards, 50 μL calcium chloride solution (0.25 M) was added into the cuvette, and the clotting time of plasma samples was recorded immediately with the coagulation analyser (APTT).

[6] = tested on: rat plasma; experiment: TT, PT and APTT of rat blood after administration; assay type: in vivo
Method: Forty-eight male SD rats (180 ~ 220 g) were randomly divided into six groups (n = 8) and anesthetized by i.p.20% ethyl urethane (1 g·kg^−1). […] Blood samples were obtained from the abdominal aorta, and then mixed with 3.8% sodium citrate solution in a ratio of 9:1 (v/v). The resulting samples were centrifuged at 3000 rpm for 15 min at 18 °C. TT, PT and APTT were determined according to the kit protocol (Sunbio Ltd., Shanghai) on a C2000 coagulometer (Precil, Beijing).

[7] = tested on: rat carotid artery thrombosis; experiment: Rat carotid artery thrombosis (occlusion time); assay type: in vivo; settings: for occlusion time (OT): 30 min after administration
Excerpt: The carotid artery thrombosis in rats was induced by the method developed by Hladovec with minor modifications. At first, male SD Rats (180 ~ 220 g) were randomly divided into 5 groups (n = 8) and anesthetized by i.p. 20% ethyl urethane (1 g/kg). The right carotid artery was first carefully separated to give a 1.5 cm long open access, and then the stimulating electrode and the temperature electrode of BT 87–3 thrombosis radiometer (Baotou medical college, China) were linked to both ends of the artery. […] The time from the initiation of electric stimulation to the sudden drop of carotid temperature was recorded as occlusion time (OT), or thrombus formation time.

[8] = tested on: rat blood; experiment: Coagulation time (CT) of rat blood; assay type: in vivo
Method: CT was obtained using the modified Dale’s method. […] Thirty min after administration, blood samples were taken from the rat vein under eye ball with glass capillaries (20 μL), which were broken after 10 s, followed by a coagulation check. The time between blood extraction and blood coagulation in each capillary was recorded as coagulation time (CT).

[9] = SD, plasma, iv, 1 umol/kg, 1 μmol/kg i.v., n = 5

## CCCCCCCCCCCCCCCCCC(=O)NCCCC[C@H](NC(=O)CNC(=O)[C@@H]1CCCN1C(=O)[C@H](CCCNC(=N)N)NC(=O)[C@@H]1CCCN1C(=O)[C@H](N)Cc1ccccc1)C(=O)NCC(=O)NCC(=O)N[C@@H](CCC(N)=O)C(=O)NCC(=O)N[C@@H](CC(=O)O)C(=O)N[C@@H](Cc1ccccc1)C(=O)N[C@@H](CCC(=O)O)C(=O)N1CCC[C@H]1C(=O)N[C@H](C(=O)N1CCC[C@H]1C(=O)N[C@@H](CCC(=O)O)C(=O)N[C@@H](CC(=O)O)C(=O)N[C@@H](C)C(=O)N[C@@H](Cc1ccc(O)cc1)C(=O)N[C@@H](CC(=O)O)C(=O)N[C@@H](CCC(=O)O)C(N)=O)[C@@H](C)CC [Peptide S2] (H-[dF]PRPGK(Stearoyl)GGQGDFEPIPEDAYDE-NH2; N-terminus assumed)
[1]
  Ki: 15.2 ± 0.18 nM
[2]; 0.5 mg/kg
  increase on the bleeding time compared with the saline group: 29.03%
  bleeding time (BT): 300.00 ± 35.86 s
[2]; 1.0 mg/kg
  increase on the bleeding time compared with the saline group: 122.58%
  bleeding time (BT): 517.50 ± 38.45 s
[2]; 2.0 mg/kg
  increase on the bleeding time compared with the saline group: 174.19%
  bleeding time (BT): 637.50 ± 74.79 s
[3]
  binding to HSA by intrinsic fluorescence quenching: dose-dependent fluorescence quenching within the range of 2.5 ~ 16 μM
[4]; [9]
  AUC(0-inf): 26.5 µM·h
  Cmax: 10.1 ± 1.1 µM
  clearance: 0.7 ± 0.1 mL/min/kg
  half-life: 3.54 ± 0.973 h
[4]; SD, plasma, iv, 1 umol/kg, 1 μmol/kg i.v., n = 5, read-out: AUC(0-t) (converted)
  AUC(0-t): 22.9 µM·h
[4]; SD, plasma, iv, 1 umol/kg, 1 μmol/kg i.v., n = 5, read-out: Vss
  Vd: 0.146 ± 0.0155 L/kg
[4]; in vivo, iv, 1 umol/kg, 1 μmol/kg i.v., n = 5, read-out: MRT0-t (converted)
  MRT last: 3.29 h
[4]
  half-life, fold longer than hirulog-1: 13.1 fold
  half-life, fold longer than peptide 1: 14.7 fold
[4]; 1 μmol/kg i.v., n = 5
  AUC(0-t): 22.862 ± 3.463 µM·h
  AUC(0-∞): 1590.6 ± 311.7 nmol·min/mL
[5]; after injection via tail vein, Fig. 1D
  APTT of rat plasma, time course: increased in the first 4 h, and then decreased
[5]; rat plasma after peptide administration
  duration of antithrombotic activity (APTT): more than 8 h
[6]; 0.5 mg/kg peptide S2, 30 min after administration
  antithrombotic activity (TT, PT, APTT) compared with references: superior to the 8 mg/kg hirulog-1 and 200 IU/kg heparin
[6]; 30 min after administration, sublingual vein
  TT, PT and APTT of rat blood: significantly elevate
[7]; 0.5 mg/kg
  occlusion time (OT): 979.88 ± 150.61 s
[7]; 1.0 mg/kg
  occlusion time (OT): 1063.75 ± 61.12 s
[7]; 1.0 mg/kg, OT at different time points
  duration of antithrombotic activity (OT): more than 8 h
[7]; 2.0 mg/kg
  occlusion time (OT): 1207.25 ± 137.82
[8]; 1.0 mg/kg peptide S2
  anticoagulant activity (CT) compared with references: superior to the 8 mg/kg hirulog-1 and 200 IU/kg heparin
[8]; 30 min after administration
  coagulation time (CT) of rat blood: significantly prolong
